# Several values for one entry are separate records, joined by “and”; a condition that tells them apart may be missing. Equal values may be shown once. Read-outs that look alike come from different tables or passages of the source.
# How the values were obtained:
# HeLa cells = assay: Cell cycle analysis by flow cytometry; type: cell-based; details: 24 h, 2f, 2j, quercetin at IC50, paclitaxel 5 μM
# Procedure: The paclitaxel (5 μM) was performed as the positive control.
# The treatment of HeLa cells and compounds was the same as in the apoptosis protocol. The cells were harvested for 200 μL and centrifuged at 600× g for 5 min and washed with PBS. The mixing cells were slowly added 200 μL of ice-cold 70% ethanol and incubated for at least 3 h at −20 °C. Cells were centrifuged and washed with PBS. Finally, cells were stained with 200 μL of Muse® cell cycle reagent and incubated at room temperature for 30 min in the dark. The cell was analyzed by flow cytometry (Guava Muse Cell Analyzer, Luminex, Austin, TX, USA).
# HeLa cell = assay: MTT anticancer activity assay, HeLa cells; type: cell-based; details: for IC50 / viability at 100 µM: Homo sapiens; for IC50 / Anticancer activity on cervical cancer cells: HeLa
# Procedure: (§1) HEK293, HACAT, and HeLa cells were grown in modified Eagles’ minimum essential medium (EMEM, Gibco) with 10% fetal bovine serum (FBS, Gibco), 1% of 100 U/mL streptomycin and 100 U/mL penicillin (Gibco). Cells were seeded in culture flasks and maintained in an incubator at 37 °C in a humidified atmosphere with 5% CO2. After reaching 80–90% of confluence, cells were detached by incubation with 0.25% trypsin-0.2% EDTA (Gibco) for 5 min and plated for experiments.
# (§2) This study examined cell cultures of HEK293, HACAT, and HeLa cells. The cytotoxicity of the test samples was carried out by the MTT (3-(4,5-dimethylthiazol-2-yl)-2,5-diphenyltetrazolium bromide) assay. The cells were seeded in 96-well microliter plates (2.0 × 10^4 cells/well). Stock solutions of the test compounds were prepared in DMSO. After 24 h, cells were treated with different concentrations of samples and diluted with media to obtain the final desired concentration. The treated cells were then incubated at 37 °C and 5% CO2 for 24 and 48 h. After incubation, the medium was replaced with 0.05% w/v of MTT solution in PBS and further incubated for 3 h. The solution was then discarded and DMSO was added to dissolve the formed formazan crystals. Each well’s absorbance (A) was measured at 570 nm using a microplate reader (FLUOstar Omega^TM, BMG Labtech, Ortenberg, Germany). All experiments were carried out in triplicate and repeated for at least three experiments.
# [1] = MTT cytotoxicity assay, HEK293 cells; type: cell-based; details: human, HEK293 cells, 100 μM; for viability at 24 h, 100 µM: read-out: % Viability ± SD (at 100 μM) HEK293 24 h; for viability at 48 h, 100 µM: read-out: % Viability ± SD (at 100 μM) HEK293 48 h
# Procedure: as §1, §2
# [2] = FRAP (ferric reducing antioxidant power) assay; type: biochemical; details: Trolox equivalent
# Source text: Three in vitro antioxidant assays (DPPH, FRAP, and ABTS) were utilized to evaluate the antioxidant property of the synthesized compounds. The DPPH (α, α-diphenyl-β-picrylhydrazyl) assay is the well-known approach to determine antioxidant activity using a stable free radical DPPH, measure the absorbance change, and calculate the absorbance change in the percentage of scavenging activity. […] For example, the ferric-tripyridyltriazine (Fe^3+-TPTZ, colorless) complex is reduced to ferrous tripyridyltriazine (Fe^2+-TPTZ) at low pH and introduces a blue color with maximum absorption at 593 nm. The change in absorbance is related to antioxidant activity. However, a significant limitation of these in vitro tests is the non-physiological measurement conditions (no enzymatic condition and no transition metal ion chelating activity); therefore, the results obtained may not reflect the antioxidant activity of the source material under the biological conditions that exist in humans and animals. The ABTS assay involves a more drastic radical that is chemically produced. The use of ABTS for antioxidant activity determination of hydrophilic and lipophilic pure compounds has attracted interest due to its solubility in organic and aqueous media and stability in a wide pH range [31].
# The FRAP assay is a method for assessing antioxidant power. Briefly, the FRAP reagent was prepared from acetate buffer pH 3.6, 10 mM TPTZ solution in 40 mM HCl and 20 mM FeCl3.6 H2O in relative proportions of 10:1:1, v/v, respectively. The FRAP reagent was freshly prepared daily. A solution of 5 μL of the sample (3–300 μM, approx.) was mixed with 180 μL of the FRAP reagent in a 96-well plate. The mixture was shaken in the dark for 10 min and incubated at 37 °C for 20 min, and the absorbance was determined at 593 nm. The solution without the sample was used as a blank. All determinations were made in triplicate. Trolox was used as a standard antioxidant and plot the calibration curve between absorbance and concentration. Quercetin was applied as the reference compound. The FRAP values were calculated by comparing the absorbance change in the test sample and represented in μM of Trolox equivalent per μM of sample.
# HEK293 cells = assay: Cell migration scratch assay, HEK293; type: cell-based; details: HEK293, 100 μM, 24 and 48 h
# Procedure: Cell migration in the HEK293 and the HeLa cell lines was investigated. The assay was conducted to investigate cell maintenance after being damaged. The active samples from in vitro antioxidant activity were examined. Cells were grown in a 24-well plate until 80% confluence and treated with 2f and 2j for 24 or 48 h compared to the untreated control. The cells in each well were then scratched to create a wound area across the center of the plates using a plastic 20 μL pipette tip. Cell images were taken immediately, and the scratch area was measured at 0, 24, and 48 h. During the experiment, the percentage of wound area was tracked as an indirect assessment. Compared to the control, the percentage of empty area change at each time point was quantified with a Nikon eclipse Ts2R inverted microscope.
# Figure 7 A scratch assay was performed to examine the migration ability of synthesized compounds 2f and 2j at 100 μM compared with untreated control. Representative pictures of the assay induce the migration of HEK cells using quercetin as a reference. Pictures were taken at the start of the experiment (0 h) 24 and 48 h later. Pictures of representative experiments are shown, and the relative migration of cells is represented with a bar graph; means ± SD (n = 3; *: p < 0.05 and **: p < 0.001, Turkey HSD), Scale bars represent 500 μm.
# [3] = MTT cytotoxicity assay, HACAT cells; type: cell-based; details: human; for viability at 24 h, 100 µM: read-out: % Viability ± SD (at 100 μM) HACAT 24 h; for viability at 48 h, 100 µM: read-out: % Viability ± SD (at 100 μM) HACAT 48 h
# Procedure: as §1, §2
# [4] = 24 h, read-out: % Viability ± SD (at 100 μM) HeLa 24 h
# [5] = 48 h, read-out: % Viability ± SD (at 100 μM) HeLa 48 h
IC50 (HeLa cell; 24 h) [µM],SMILES,Cell cycle phase arrest (HeLa cells),Cell population in G0/G1 phase (HeLa cells) [%],Cell population in G2/M phase (HeLa cells) [%],Cell population in S phase (HeLa cells),Cell population in S phase (HeLa cells; listed as quercetin) [%],viability at 100 µM (HeLa cell; [4]) [%],viability at 100 µM (HeLa cell; [5]) [%],"viability at 24 h, 100 µM [1] [%]","viability at 48 h, 100 µM [1] [%]",FRAP593nm Value ± SD (TE) [2],Cell migration vs untreated (HEK293 cells),"viability at 24 h, 100 µM [3] [%]","viability at 48 h, 100 µM [3] [%]",Anticancer activity on cervical cancer cells (HeLa cell; 24 h)
192.4 ± 1.27,"O=c1c(O)c(-c2ccc(O)c(O)c2)oc2cc(O)cc(O)c12 [Quercetin, quercetin, reference compound]",S phase arrest,35.72 ± 2.67,26.40 ± 0.18,37.88 ± 2.75 %,37.88,69.1 ± 1.93,19.2 ± 0.25,102 ± 1.58,86.6 ± 4.66,3.35 ± 0.231 µM Trolox/1 µM of Synthesized Compounds,significant induction of cell migration,85.6 ± 125,76.8 ± 2.32,–
101 ± 3.18,"O=C(Oc1ccc2c(=O)c(C(=O)c3ccccc3)c(-c3ccccc3)oc2c1O)c1ccccc1 [2j, 3-Benzoyl-8-hydroxy-4-oxo-2-phenyl-4H-chromen-7-yl benzoate]",S phase arrest,32.90 ± 4.05,35.49 ± 4.98,31.61% and 31.61 ± 0.93 %,–,65.2 ± 1.42,30 ± 1.23,96 ± 2.62,71.6 ± 5.19,0.34 ± 0.078 µM Trolox/1 µM of Synthesized Compounds,significant induction of cell migration,72.6 ± 5.53,58 ± 2.63,contained anticancer activity
191 ± 6.01,"O=C(c1ccccc1)c1c(-c2ccccc2)oc2c(O)c(O)ccc2c1=O [2f, 3-Benzoyl-7,8-dihydroxy-2-phenyl-4H-chromen-4-one]",S phase arrest,41.26 ± 1.21,24.71 ± 4.02,34.03% and 34.03 ± 3.81 %,–,109.3 ± 0.92,29.2 ± 0.4,105 ± 1.19,74.7 ± 0.83,1.70 ± 0.138 µM Trolox/1 µM of Synthesized Compounds,significant induction of cell migration,81.6 ± 8.46,77.1 ± 5.03,contained anticancer activity
